The record followed here is ChEMBL document CHEMBL1201862, “PubChem BioAssay data set” (2004).

Test systems include A498; MCF7; SNB-75; LOX IMVI; SF-295; SNB-19; KM12; SK-MEL-5; HT-29; U-251; M14; TK-10; SN12C; NCI-H226; K562; HOP-92; SW-620; UACC-62; HL-60.
What all share (assay): NCI tumour cell line growth inhibition, 48 h

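Method: 48-hour compound exposure of cells in 96-well plates, five concentrations, linear interpolation of endpoints. GI50: concentration for 50% inhibition of growth.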 The source made the active and inactive calls. Rule as the data show it: active = GI50 up to about 1.1 µM and inactive = higher.

For the compound `CCOC(=O)C(COS(C)(=O)=O)(COS(C)(=O)=O)C(=O)OCC`, the GI50 is 11.1 µM (inactive) with A498; > 100 µM (inactive) in the assay on MCF7; > 100 µM (inactive) in the assay on SNB-75; > 100 µM (inactive) with LOX IMVI; > 100 µM (inactive) in the assay on SF-295; > 100 µM (inactive) in the assay with SNB-19. Moreover, the GI50 in the assay with KM12, in the assay with SK-MEL-5, in the assay on HT-29, in the assay on U-251, in the assay on M14 and with TK-10 was > 100 µM (inactive) throughout. Also, the GI50 in the assay on SN12C, in the assay with NCI-H226, in the assay with K562, with HOP-92 and in the assay with SW-620 was > 100 µM (inactive) throughout.
Take `O=c1[nH]cnc2c1sc1nc3ccccc3n12`: the GI50 with A498 is 33.3 µM (inactive); in the assay on MCF7 it was 76.4 µM (inactive); in the assay on SNB-75, 49.3 µM (inactive); with LOX IMVI, 27.8 µM (inactive); in the assay with SF-295 it was > 100 µM (inactive); in the assay on SNB-19, > 100 µM (inactive). In addition, the GI50 was 5.96 µM (inactive) in the assay on KM12; 30.5 µM (inactive) in the assay on UACC-62; > 100 µM (inactive) in the assay with SK-MEL-5; > 100 µM (inactive) in the assay with HT-29; > 100 µM (inactive) in the assay on U-251; > 100 µM (inactive) in the assay with M14. In addition, the GI50 was 70 µM (inactive) in the assay with TK-10, > 100 µM (inactive) in the assay on NCI-H226, > 100 µM (inactive) in the assay on HOP-92 and > 100 µM (inactive) in the assay with SW-620.
Consider `COc1cc([C@@H]2c3cc4c(cc3[C@@H](c3c(O)cc(O)c5c3O[C@H](c3ccc(O)c(O)c3)[C@H](OC(=O)c3cc(O)c(O)c(O)c3)C5)[C@H]3COC(=O)[C@H]23)OCO4)cc(OC)c1O`, for which the GI50 in the assay with A498 is 74.5 µM (inactive); in the assay on HL-60, 19.5 µM (inactive); with MCF7, 42 µM (inactive); in the assay on LOX IMVI, 29.2 µM (inactive); in the assay on SF-295, 39.3 µM (inactive); in the assay on SNB-19, 30.1 µM (inactive). Also, the GI50 is 32 µM (inactive) with KM12; 98.9 µM (inactive) in the assay on UACC-62; 25.8 µM (inactive) in the assay on SK-MEL-5; 25 µM (inactive) with HT-29; 46.5 µM (inactive) in the assay with U-251; 23.4 µM (inactive) in the assay with M14. The GI50 in the assay on TK-10 was 92.3 µM (inactive); in the assay on SN12C it was 22.3 µM (inactive); with HOP-92, 58.2 µM (inactive); in the assay on SW-620 it was 44.4 µM (inactive).
Take `COc1ccc(CCNC(=O)CCc2ccccc2CO)cc1OC`: the GI50 with A498, in the assay with HL-60, in the assay on MCF7, with SNB-75, with SF-295 and in the assay with SNB-19 was > 100 µM (inactive) each time. Moreover, the GI50 in the assay with KM12, in the assay on UACC-62, in the assay with SK-MEL-5, in the assay on HT-29, with U-251 and in the assay with M14 was > 100 µM (inactive) each time. The GI50 in the assay with TK-10, in the assay with SN12C, in the assay on NCI-H226, with K562, with HOP-92 and in the assay with SW-620 was > 100 µM (inactive) each time.
Turning to `CC(=O)O[C@H]1CC[C@@]2(C)C(=CC[C@@H]3[C@@H]2CC[C@]2(C)Nc4c(cnn4S(C)(=O)=O)C[C@@H]32)C1`, the GI50 is > 100 µM (inactive) in the assay with A498; 23.4 µM (inactive) with HL-60; 28.9 µM (inactive) in the assay with MCF7; 69.3 µM (inactive) in the assay on SNB-75; 62.2 µM (inactive) in the assay on SF-295; > 100 µM (inactive) in the assay on SNB-19. In addition, the GI50 in the assay on KM12 is 52.8 µM (inactive); with UACC-62 it was 47.3 µM (inactive); in the assay on SK-MEL-5 it was 16.4 µM (inactive); with HT-29, 21.9 µM (inactive); in the assay with U-251, 76.7 µM (inactive); with M14, 27.8 µM (inactive). Moreover, the GI50 in the assay on SN12C is > 100 µM (inactive); in the assay with NCI-H226 it was 35.2 µM (inactive); in the assay with K562 it was 19.1 µM (inactive); with HOP-92, 71.3 µM (inactive).
Consider `COc1ccc2c(c1OC)C(=O)N1C2=Cc2c(cc3c(c2OC)OCO3)CC1N(C)C` (centres undefined), for which the GI50 in the assay on A498 was 47.8 µM (inactive); in the assay with HL-60, 24.9 µM (inactive); in the assay with MCF7 it was 58.7 µM (inactive); in the assay on SNB-75, 29.8 µM (inactive); with SF-295, 50.8 µM (inactive); in the assay on SNB-19, > 100 µM (inactive). Moreover, the GI50 with KM12 was 34 µM (inactive); with UACC-62 it was 27.5 µM (inactive); in the assay with SK-MEL-5, 45.1 µM (inactive); with U-251, 49.4 µM (inactive); in the assay on M14, 66.7 µM (inactive); in the assay with TK-10, 96.6 µM (inactive). In addition, the GI50 in the assay with SN12C is 35.9 µM (inactive); in the assay on NCI-H226 it was 40.4 µM (inactive); in the assay on K562, 30.3 µM (inactive); in the assay with HOP-92, 30.3 µM (inactive); with SW-620, 62.1 µM (inactive).
Take `S=C(N/N=C/c1ccccn1)N1CC2CCC(CC2)C1`: the GI50 is 0.119 µM (active) in the assay on A498; < 0.01 µM (active) with HL-60; < 0.01 µM (active) with MCF7; 0.2 µM (active) in the assay with SNB-75; < 0.01 µM (active) with LOX IMVI; < 0.0128 µM (active) in the assay with SF-295. Further, the GI50 is 0.161 µM (active) in the assay with SNB-19; < 0.01 µM (active) in the assay with KM12; < 0.0365 µM (active) in the assay with UACC-62; < 0.01 µM (active) in the assay with SK-MEL-5; < 0.01 µM (active) in the assay on HT-29; < 0.01 µM (active) with U-251. Also, the GI50 with M14 is < 0.01 µM (active); with TK-10 it was < 0.01 µM (active); in the assay on SN12C, < 0.0216 µM (active); in the assay with K562, < 0.01 µM (active); in the assay with HOP-92 it was 0.0568 µM (active); in the assay on SW-620, < 0.01 µM (active).
Consider `COc1cc(/N=C(\N)N=C(N)N)c2ncccc2c1`, for which the GI50 in the assay with A498 was > 100 µM (inactive); in the assay on MCF7 it was > 100 µM (inactive); in the assay with SNB-75, 60.4 µM (inactive); with LOX IMVI, > 100 µM (inactive); in the assay with SF-295 it was > 100 µM (inactive); in the assay with SNB-19 it was 50.4 µM (inactive). Further, the GI50 with KM12 was 45.3 µM (inactive); in the assay with UACC-62, > 100 µM (inactive); in the assay with SK-MEL-5, 39.9 µM (inactive); in the assay with HT-29, > 100 µM (inactive); in the assay with U-251, 38 µM (inactive); with M14 it was > 100 µM (inactive). Moreover, the GI50 was > 100 µM (inactive) with TK-10; 62.1 µM (inactive) in the assay with SN12C; 18.7 µM (inactive) in the assay with NCI-H226; 67 µM (inactive) in the assay with HOP-92; > 100 µM (inactive) with SW-620.
With `O=[N+]([O-])c1ccc(C(=S)Nc2ccccc2)o1`, the GI50 was 18.1 µM (inactive) with A498; 2.1 µM (inactive) in the assay with HL-60; 2.05 µM (inactive) with MCF7; 7.67 µM (inactive) in the assay with SNB-75; 2.29 µM (inactive) in the assay with LOX IMVI; 5.56 µM (inactive) in the assay with SF-295. For the same compound, the GI50 with SNB-19 is 4.62 µM (inactive); with KM12, 2.38 µM (inactive); in the assay on UACC-62, 3.46 µM (inactive); in the assay with SK-MEL-5, 10.9 µM (inactive); with HT-29, 1.85 µM (inactive); in the assay with U-251 it was 1.48 µM (inactive). Moreover, the GI50 is 4.94 µM (inactive) in the assay on M14; 4.74 µM (inactive) in the assay on TK-10; 2.42 µM (inactive) with SN12C; 0.938 µM (active) in the assay on K562; 15.3 µM (inactive) in the assay with HOP-92; 1.27 µM (inactive) in the assay on SW-620.
Take `COc1cc(OC)cc(C(=O)CC(=O)c2cc(OC)cc(OC)c2)c1`: the GI50 in the assay on A498 is > 100 µM (inactive); with HL-60, 6.01 µM (inactive); with MCF7, > 100 µM (inactive); in the assay on SNB-75 it was > 100 µM (inactive); in the assay with SF-295, > 100 µM (inactive); in the assay on SNB-19, > 100 µM (inactive). Also, the GI50 in the assay on KM12, with UACC-62, in the assay with SK-MEL-5, with U-251, in the assay with M14 and in the assay on TK-10 was > 100 µM (inactive) throughout. The GI50 with SN12C is > 100 µM (inactive); in the assay with NCI-H226 it was > 100 µM (inactive); in the assay with K562, 46.1 µM (inactive); with HOP-92 it was > 100 µM (inactive); in the assay on SW-620, 95.1 µM (inactive).
`O=C(CCc1ccc(O)cc1)NCCc1cccc(OCc2ccccc2)c1`: the GI50 is 55.8 µM (inactive) in the assay on A498; 16.6 µM (inactive) in the assay on HL-60; 27.9 µM (inactive) with MCF7; 15.6 µM (inactive) in the assay on LOX IMVI; 30.3 µM (inactive) in the assay with SF-295; 69 µM (inactive) in the assay with SNB-19. In addition, the GI50 is 25.4 µM (inactive) in the assay on KM12; 14.1 µM (inactive) in the assay on UACC-62; 17.4 µM (inactive) with SK-MEL-5; 19.5 µM (inactive) with HT-29; 22.7 µM (inactive) in the assay on U-251; 17.8 µM (inactive) in the assay on M14. In addition, the GI50 was 28.6 µM (inactive) in the assay on TK-10; 75.3 µM (inactive) in the assay on SN12C; 29 µM (inactive) in the assay on NCI-H226; 17.9 µM (inactive) with K562; 23.6 µM (inactive) in the assay with HOP-92.
In the case of `CC1(C)OC2OC(COC(=O)C=[N+]=[N-])C3OC(C)(C)OC3C2O1` (centres undefined), the GI50 in the assay with A498, in the assay on HL-60, with MCF7, in the assay on LOX IMVI, with SF-295 and with SNB-19 was > 100 µM (inactive) in each case. The GI50 in the assay on KM12, in the assay with UACC-62, with SK-MEL-5, in the assay on HT-29, with U-251 and with TK-10 was > 100 µM (inactive) throughout. Also, the GI50 with SN12C, in the assay on NCI-H226, in the assay with K562, in the assay with HOP-92 and in the assay on SW-620 was > 100 µM (inactive) in each case.
